According to PMC3096752 (Clinical cancer research : an official journal of the …, 2011):

Tests used:
mantle cell lymphoma = settings: bortezomib alone; cited from earlier work
[1] = test system: patients with B cell malignancies (multiple myeloma, indolent and mantle cell lymphoma); assay: Phase I 3+3 dose escalation: DLT and MTD; assay type: in vivo, human
[2] = test system: refractory/relapsed indolent NHL (including follicular, marginal zone and SLL); settings: cited from earlier work
refractory/relapsed MM = settings: cited from earlier work
[3] = Alvocidib plasma pharmacokinetics; assay type: in vivo, human; settings: mean ± SD
[4] = Dose Level 1 (n=8 doses): alvocidib 20+20 mg/m^2
[5] = Dose Level 2 (n=6 doses): alvocidib 30+30 mg/m^2
[6] = Dose Level 3 (n=3 doses): alvocidib 30+50 mg/m^2

SMILES	single-agent activity (response rate) (mantle cell lymphoma)	MTD, bortezomib ([1]; IV push days 1, 4, 8, 11, 21 day cycle, in combination with alvocidib) [mg/m^2]	response rates to single agent bortezomib [2]	responses to single-agent bortezomib (refractory/relapsed MM)	CL [3, 4]	K10 [3, 4] [h⁻¹]	V1 [3, 4]	CL [3, 5]	K10 [3, 5] [h⁻¹]	V1 [3, 5]	CL [3, 6]	K10 [3, 6] [h⁻¹]	V1 [3, 6]	V2 [3, 6]	MTD, alvocidib 4 hour infusion ([1]; days 1 and 8, 21 day cycle, after the 30 min bolus, in combination with bortezomib) [mg/m^2]	MTD, alvocidib 30 min bolus infusion ([1]; days 1 and 8, 21 day cycle, in combination with bortezomib) [mg/m^2]
CC(C)C[C@H](NC(=O)[C@H](Cc1ccccc1)NC(=O)c1cnccn1)B(O)O [bortezomib]	approximately 33%	1.3	approximately 13.3%	approximately 35%	–	–	–	–	–	–	–	–	–	–	–	–
CN1CC[C@H](c2c(O)cc(O)c3c(=O)cc(-c4ccccc4Cl)oc23)[C@H](O)C1 [alvocidib]	–	–	–	–	13,243 ± 2,540 ml/h/m^2	0.803 ± 0.237	18,512 ± 8,687 ml/m^2	12,825 ± 3,267 ml/h/m^2	1.04 ± 0.438	14,888 ± 7,685 ml/m^2	18,137 ± 8,097 ml/h/m^2	0.569 ± 0.169	31,380 ± 7,368 ml/m^2	48,448 ± 23,397 ml/m^2	30	30
